From ChEMBL document CHEMBL1201862, “PubChem BioAssay data set” (2004) come the findings set out here.

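Where inhibition never reached the appropriate level, the endpoint shown equals the highest concentration tested. Otherwise, values were interpolated linearly from a five-concentration, 48-hour dose response in 96-well plates. The concentration for 50% growth inhibition is given as GI50.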 Activity calls are given as the source filed them. Cut-off read from the data, not from the text of the source: active = GI50 up to about 1.1 µM and inactive = higher.

Some test systems named below: MOLT-4; IGROV-1; SW-620; SN12C; COLO 205; SNB-19; MDA-MB-435; 786-0; SK-MEL-28; CCRF-CEM; Hs-578T; NCI-H23; OVCAR-8; NCI/ADR-RES; DU-145; SK-MEL-2; MCF7; CAKI-1; HCT-15; SNB-75.
What all share (assay): NCI-60 cell line screen, 48 h

For `N#CC(C#N)=C1C(=O)NC(N)=C1C#N`, the GI50 in the test on MOLT-4, in the test on IGROV-1, with SW-620, in the test on SN12C, with COLO 205 and with SNB-19 was > 100 µM (inactive) throughout. Moreover, the GI50 in the test on MDA-MB-435, in the test on 786-0, in the test with SK-MEL-28, with CCRF-CEM, in the test with Hs-578T and with NCI-H23 was > 100 µM (inactive) each time. Besides, the GI50 with OVCAR-8, with NCI/ADR-RES, in the test on DU-145, in the test on SK-MEL-2, in the test on MCF7 and in the test on CAKI-1 was > 100 µM (inactive) in each case. Further, in the test with HCT-15, the GI50 is more than 100 µM.
Regarding `Cc1cc(Br)c(O)c(-c2cscn2)c1`, the GI50 is 22.9 µM (inactive) in the test with IGROV-1; 12.3 µM (inactive) with SW-620; 10.5 µM (inactive) in the test with SN12C; 18 µM (inactive) with COLO 205; 15.2 µM (inactive) with SNB-19; 20.7 µM (inactive) in the test on MDA-MB-435. Further, the GI50 in the test on 786-0 was 2.43 µM (inactive); with CCRF-CEM, 6.55 µM (inactive); with Hs-578T it was 19.3 µM (inactive); in the test on NCI-H23 it was 14.4 µM (inactive); with OVCAR-8, 10.9 µM (inactive); with NCI/ADR-RES it was 24 µM (inactive). The GI50 in the test on SK-MEL-2 was 19.3 µM (inactive); in the test on CAKI-1, 24.2 µM (inactive); in the test with HCT-15, 5.57 µM.
Consider `Oc1ccccc1/C=N/Nc1nc(N/N=C/c2ccccc2O)nc(N/N=C/c2ccccc2O)n1`, for which the GI50 in the test on MOLT-4 is 10.5 µM (inactive); in the test on IGROV-1 it was 45.4 µM (inactive); in the test on SW-620, > 100 µM (inactive); in the test on SN12C, > 100 µM (inactive); in the test with COLO 205 it was > 100 µM (inactive); in the test on SNB-19, > 100 µM (inactive). The GI50 in the test with MDA-MB-435 was > 100 µM (inactive); in the test with 786-0 it was 40.2 µM (inactive); in the test with SK-MEL-28, > 100 µM (inactive); in the test on Hs-578T, 46.5 µM (inactive); with NCI-H23, > 100 µM (inactive); in the test with OVCAR-8 it was > 100 µM (inactive). Also, the GI50 with NCI/ADR-RES was 24.5 µM (inactive); with DU-145, > 100 µM (inactive); with SK-MEL-2 it was 43.6 µM (inactive); in the test with MCF7 it was 8.63 µM (inactive); in the test on CAKI-1 it was > 100 µM (inactive); with HCT-15 it was 13.3 µM.
Regarding `O=C1NC(=S)N/C1=C/c1c(-c2ccccc2)[nH]c2ccccc12`, the GI50 in the test with MOLT-4 is 12.4 µM (inactive); with IGROV-1, 13.8 µM (inactive); in the test with SW-620 it was 17.1 µM (inactive); in the test on SN12C, 18.5 µM (inactive); in the test on COLO 205 it was 17.9 µM (inactive); in the test on SNB-19, 16.5 µM (inactive). The GI50 with MDA-MB-435 was 13.7 µM (inactive); in the test on 786-0, 14 µM (inactive); in the test with SK-MEL-28, 16.6 µM (inactive); in the test on Hs-578T, 16.6 µM (inactive); in the test on NCI-H23, 14.1 µM (inactive); with OVCAR-8, 14.4 µM (inactive). Besides, the GI50 in the test with NCI/ADR-RES is 18.6 µM (inactive); in the test with SNB-75, 15.3 µM (inactive); with SK-MEL-2, 13.2 µM (inactive); in the test on MCF7 it was 15.2 µM (inactive); in the test on CAKI-1, 18.2 µM (inactive); in the test on HCT-15, 14.7 µM.
Consider `O=c1c2ccccc2n2c(S)nnc2n1-c1ccccc1`, for which the GI50 in the test on MOLT-4, in the test on IGROV-1, in the test on SW-620, with SN12C, in the test with COLO 205 and with SNB-19 was > 100 µM (inactive) each time. For the same compound, the GI50 in the test on MDA-MB-435, with 786-0, with SK-MEL-28, in the test with CCRF-CEM, in the test on NCI-H23 and in the test with OVCAR-8 was > 100 µM (inactive) each time. Moreover, the GI50 in the test on NCI/ADR-RES is > 100 µM (inactive); with SNB-75, 21.1 µM (inactive); with DU-145 it was > 100 µM (inactive); in the test with SK-MEL-2, > 100 µM (inactive); with MCF7 it was > 100 µM (inactive); with CAKI-1, > 100 µM (inactive). In the test with HCT-15, the GI50 is more than 100 µM.
As to `CC(=O)N1c2ccccc2C2=NN=C(N(C)C)SC21` (configuration not stated), the GI50 with MOLT-4 was 3.09 µM (inactive); in the test with SW-620, 4.78 µM (inactive); in the test on SN12C it was 2.08 µM (inactive); in the test with COLO 205, 3.3 µM (inactive); with SNB-19, 3.85 µM (inactive); with MDA-MB-435, 6.56 µM (inactive). Besides, the GI50 with 786-0 is 2.48 µM (inactive); in the test with SK-MEL-28, 3.47 µM (inactive); with CCRF-CEM, 2.1 µM (inactive); with Hs-578T, 13.5 µM (inactive); with NCI-H23, 5.19 µM (inactive); in the test on OVCAR-8 it was 2.65 µM (inactive). Moreover, the GI50 with NCI/ADR-RES is 2.75 µM (inactive); in the test on SNB-75 it was 13.6 µM (inactive); in the test on DU-145 it was 1.58 µM (inactive); in the test on SK-MEL-2, 2.18 µM (inactive); in the test with MCF7, 4.06 µM (inactive); in the test with HCT-15 it was 0.838 µM.
In the case of `CC1=CC(=O)N(n2c(Cc3ccc(Cl)cc3)n[nH]c2=O)C1=O`, the GI50 in the test with MOLT-4 is 20.8 µM (inactive); in the test with IGROV-1 it was 83.4 µM (inactive); with SW-620 it was 32.5 µM (inactive); in the test with SN12C it was 81.3 µM (inactive); in the test on COLO 205 it was 71.3 µM (inactive); in the test with SNB-19 it was 55.6 µM (inactive). The GI50 in the test with MDA-MB-435 is 38.2 µM (inactive); with 786-0, 60.5 µM (inactive); in the test with CCRF-CEM, 7.91 µM (inactive); in the test with Hs-578T it was 35.4 µM (inactive); with NCI-H23, 92.3 µM (inactive); in the test with OVCAR-8 it was 55.5 µM (inactive). Moreover, the GI50 was > 100 µM (inactive) with NCI/ADR-RES; > 100 µM (inactive) in the test with DU-145; > 100 µM (inactive) in the test on SK-MEL-2; 30.5 µM (inactive) in the test on MCF7; 88.3 µM (inactive) with CAKI-1; 44.9 µM with HCT-15.
Regarding `C=C1CC/C=C(/C(=O)O)CC[C@H]2[C@@H]1CC2(C)C`, the GI50 in the test on MOLT-4, in the test on IGROV-1, in the test with SW-620, with SN12C, with COLO 205 and in the test with SNB-19 was > 100 µM (inactive) in each case. Further, the GI50 in the test on MDA-MB-435, with 786-0, in the test with SK-MEL-28, in the test with CCRF-CEM, with Hs-578T and in the test on NCI-H23 was > 100 µM (inactive) each time. In addition, the GI50 was > 100 µM (inactive) with DU-145; > 100 µM (inactive) with SK-MEL-2; > 100 µM (inactive) with MCF7; > 100 µM (inactive) with CAKI-1; more than 100 µM in the test on HCT-15.
For `COc1cc2nc(-c3ccccc3)cc(O)c2c(OC)c1OC`, the GI50 in the test with MOLT-4, in the test with IGROV-1, with SW-620, in the test on SN12C, in the test with COLO 205 and in the test on SNB-19 was > 100 µM (inactive) in each case. The GI50 in the test with MDA-MB-435, with 786-0, in the test with SK-MEL-28, in the test with CCRF-CEM, in the test with Hs-578T and in the test on NCI-H23 was > 100 µM (inactive) in each case. Also, the GI50 in the test on OVCAR-8 is > 100 µM (inactive); in the test with NCI/ADR-RES it was > 100 µM (inactive); in the test with SNB-75, > 100 µM (inactive); in the test on DU-145, > 100 µM (inactive); with SK-MEL-2 it was > 100 µM (inactive); with MCF7, 67.1 µM (inactive). The compound also came in with a GI50 with HCT-15 of more than 100 µM.
As to `Cc1nc(N)c(N2CCN(C#N)CC2)c(O)n1`, the GI50 with MOLT-4, with SW-620, with SN12C, with COLO 205, in the test on SNB-19 and with MDA-MB-435 was > 100 µM (inactive) throughout. Besides, the GI50 with 786-0, in the test with SK-MEL-28, in the test on CCRF-CEM, in the test with Hs-578T, in the test on NCI-H23 and with OVCAR-8 was > 100 µM (inactive) in each case. Further, the GI50 in the test on NCI/ADR-RES was > 100 µM (inactive); with SNB-75, > 100 µM (inactive); with DU-145, > 100 µM (inactive); with SK-MEL-2 it was > 100 µM (inactive); in the test with MCF7, > 100 µM (inactive); with HCT-15, more than 100 µM.
Consider `N#C/C=c1/c2ccccc2n2nc3ccccc3c12`, for which the GI50 is 7.19 µM (inactive) in the test with IGROV-1; 25.6 µM (inactive) in the test with SW-620; 25.2 µM (inactive) in the test on SN12C; 16.8 µM (inactive) with COLO 205; 16 µM (inactive) in the test on SNB-19; > 100 µM (inactive) in the test on MDA-MB-435. The GI50 in the test with 786-0 is 5.01 µM (inactive); in the test on SK-MEL-28 it was > 100 µM (inactive); in the test on CCRF-CEM, 81.7 µM (inactive); with Hs-578T, 22.1 µM (inactive); with NCI-H23, 22.3 µM (inactive); in the test on OVCAR-8 it was 11.7 µM (inactive). The GI50 in the test with NCI/ADR-RES was 14.9 µM (inactive); with DU-145, > 100 µM (inactive); in the test on SK-MEL-2 it was 48.6 µM (inactive); in the test on MCF7, 11.3 µM (inactive); with CAKI-1, 6.85 µM (inactive); in the test with HCT-15 it was 43.3 µM.
